Paper PMC9282638, “A Suite of Activity-Based Probes To Dissect the KLK Activome in Drug-Resistant Prostate Cancer” (Journal of the American Chemical Society, 2021)

Tested on: KLK2, KLK3, and KLK14
Test: Streptavidin blotting of LNCaP-K14 conditioned media after treatment with biotinylated ABPs
Type: biochemical, human
Details: CM of LNCaP-K14 cells, 10 nM DHT and 200 nM Dox; 1 h; concentration-dependent labeling
Description: With ABPs for KLK2, KLK3, and KLK14 in hand, we next addressed selective readouts of KLK activities in a complex biological system. Compounds 20, 31, and 39 were incubated with CM obtained from LNCaP-K14 cells, in which KLK14 expression has been placed under the control of a doxycycline-inducible promoter, stimulated with 10 nM DHT and 200 nM doxycycline (Dox).[15] […] In line with previous reports KLK14 appears as a double band due to protein glycosylation.[15],[39] Selective covalent modification of KLK2, KLK3, and KLK14 by 31, 20, and 39, respectively, was confirmed by streptavidin enrichment and immunoblotting (Figures S19 and S20). In the following experiments, biotinylated ABPs (bABPs) 31, 20, and 39 are named KLK2_bABP, KLK3_bABP, and KLK14_bABP, respectively.
FBS) were seeded onto the bone matrix. As a control the same number of LNCaP cells were seeded in a T175 plate lacking osteoblast cells. After 12 h, the media was aspirated, and the co-culture was incubated with serum-free RPMI media (0 % FBS and phenol red-free) for a further 48 h. After 48 h the media was collected, passed through a 0.2 μm syringe filter and stored at – 80 °C until needed. Indirect Co-culture – After 6 weeks, the media was aspirated, and the differentiated osteoblasts were incubated with serum-free RPMI media (0 % FBS and phenol red-free) for a further 48 h. After 48 h the media was collected, passed through a 0.2 μm syringe filter and then added to a T175 plate of LNCaP cells grown to 80 % confluency and hormone starved for 24 h in RPMI media supplemented with 5 % charcoal stripped FBS. […]
The protein concentration of the homogenate was measured using the DC Protein Assay (BioRad), following the manufacturer’s instructions. […]
Preparation of conditioned media: Samples of conditioned media were removed from – 80 °C storage and concentrated by centrifugation (3000 g, 10 °C) in a 3 KDa molecular weight cut-off spin filter (Amicon) for approximately 3 h. […] The protein concentration of the media was measured using the DC Protein Assay (BioRad), following the manufacturer’s instructions. […]

Row | SMILES | targets labeled (probe selectivity)
1 | CCC(NC(=O)C(CCN)NC(=O)C(Cc1ccc2ccccc2c1)NC(=O)CCCCCNC(=O)CCCCC1SCC2NC(=O)NC21)C(=O)NC(c1ccc(NC(=N)N)cc1)P(=O)(Oc1ccccc1)Oc1ccccc1 (stereo not drawn) [compound 39, 2Nal-Dab-Abu-Arg] | single target
2 | CCC[C@H](NC(=O)[C@H](CCC(N)=O)NC(=O)[C@H](CC(N)=O)NC(=O)CCCCCNC(=O)CCCC[C@@H]1SC[C@@H]2NC(=O)N[C@@H]21)C(=O)NC(c1ccc(C(N)=O)cc1)P(=O)(Oc1ccccc1)Oc1ccccc1 (stereo partly drawn) [compound 20] | single target
3 | CC(C)(C)C(NC(=O)CCCCCNC(=O)CCCCC1SCC2NC(=O)NC21)C(=O)NC(CCN)C(=O)NC(Cc1ccc(O)cc1)C(=O)NC(c1ccc(NC(=N)N)cc1)P(=O)(Oc1ccccc1)Oc1ccccc1 (stereo not drawn) [compound 31, Tle-Dab-Tyr-Arg] | single target
